Consider seven molecules from article PMC5424325, “Effect of health foods on cytochrome P450-mediated drug metabolism” (Journal of Pharmaceutical Health Care and Sciences, 2017).

Each structure is given as a SMILES string.

Data set [1] deals with T1, CYP2D6 (Homo sapiens, UniProt P10635).
T1 construct: expressed in transfected cells; host or cells: HepG2 cells infected with Ad-CYP2D6 (0.05 MOI) together with the four other P450 adenoviruses
Nature of the data set: Kinetic analysis of dextromethorphan O-demethylation in Ad-P450 cells. The class given is in vitro ADME.
Experimental: (§1) The cells were seeded in a 48-well tissue culture plate (Becton Dickinson) at 5.0 × 10^4 cells/well. After 48 h, the cells were simultaneously infected with Ad-CYP1A2 at 5 multiplicity of infection (MOI), Ad-CYP2C9 at 1 MOI, Ad-CYP2C19 at 2 MOI, Ad-CYP2D6 at 0.05 MOI, and Ad-CYP3A4 at 10 MOI. […] After shaking, the mixtures were centrifuged at 2500 × g for 10 min and the supernatants were evaporated to dryness at 60 °C in a block incubator. The residues were dissolved in acetonitrile containing 0.1% acetic acid and the solutions were subjected to liquid chromatography/tandem mass spectrometry (LC-MS/MS) analysis.
(§2) The Prominence system (Shimadzu Corporation, Kyoto, Japan) equipped with LCMS-8040 system (Shimadzu Corporation) was used for LC-MS/MS analysis with an electrospray ionization interface. The ionization mode used was positive in the multiple reaction monitoring. The chromatographic separation was performed on Xterra MS C18 columns (2.1 mm × 100 mm, 5 μm) (Waters, Milford, MA, USA). The column oven temperature was maintained at 40 °C. The mobile phase consisted of acetonitrile containing 0.1% acetic acid and water containing 0.1% acetic acid (85:15) with a flow rate of 200 μL/min. […]
(§3) The Km, Vmax, and IC50 values were determined using Prism software (version 6.0; GraphPad Software Inc., San Diego, CA, USA).

Data set [2] addresses T2, CYP2C9 (Homo sapiens, UniProt P11712).
T2 construct: expressed in transfected cells; host or cells: HepG2 cells infected with Ad-CYP2C9 (1 MOI) together with the four other P450 adenoviruses
The data set is described as follows: Kinetic analysis of diclofenac 4′-hydroxylation in Ad-P450 cells. The class given is in vitro ADME. How it is done: The column oven temperature was maintained at 40 °C.

The target in data set [3] is T3, CYP3A4 (Homo sapiens, UniProt P08684).
T3 construct: expressed in transfected cells; host or cells: HepG2 cells infected with Ad-CYP3A4 (10 MOI) together with the four other P450 adenoviruses
The data set is described as follows: Kinetic analysis of midazolam 1′-hydroxylation in Ad-P450 cells. The class given is in vitro ADME.
Experimental: as §1, §2, §3

Data set [4] addresses T4, CYP2C19 (Homo sapiens, UniProt P33261).
T4 construct: expressed in transfected cells; host or cells: HepG2 cells infected with Ad-CYP2C19 (2 MOI) together with the four other P450 adenoviruses
The data set is described as follows: Kinetic analysis of omeprazole 5-hydroxylation in Ad-P450 cells. It counts as in vitro ADME.
Experimental: as §1, §2, §3

The target in data set [5] is T5, CYP1A2 (Homo sapiens, UniProt P05177).
T5 sequence (P05177 1-516): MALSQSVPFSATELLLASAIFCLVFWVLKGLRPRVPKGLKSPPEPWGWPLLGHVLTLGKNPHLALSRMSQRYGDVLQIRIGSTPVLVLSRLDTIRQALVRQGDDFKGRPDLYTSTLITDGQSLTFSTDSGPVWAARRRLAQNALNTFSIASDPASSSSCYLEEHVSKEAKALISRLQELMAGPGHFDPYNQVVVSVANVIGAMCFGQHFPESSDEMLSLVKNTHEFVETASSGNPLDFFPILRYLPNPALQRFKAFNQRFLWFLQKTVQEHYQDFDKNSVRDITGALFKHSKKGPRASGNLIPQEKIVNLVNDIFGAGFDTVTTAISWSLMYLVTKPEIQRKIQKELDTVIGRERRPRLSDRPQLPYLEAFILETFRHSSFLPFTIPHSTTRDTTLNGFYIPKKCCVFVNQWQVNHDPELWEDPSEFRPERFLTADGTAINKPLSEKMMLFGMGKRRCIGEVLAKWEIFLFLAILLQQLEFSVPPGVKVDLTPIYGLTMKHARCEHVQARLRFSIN
To be noted: Phenacetin O-deethylation, Ad-P450 cells, 5 h.
Experimental: as §1, §2, §3

The test system of data set [6] is CYP1A2. The conditions noted are these: cited from earlier work.
Data set [7] has as its system CYP2C9. To be noted: competitive inhibitor; cited from earlier work.
Data set [8] concerns CYP3A4. The conditions noted are these: cited from earlier work.
The target of data set [9] is T4, CYP2C19. The data set is described as follows: CYP2C19 inhibition (omeprazole 5-hydroxylation) in Ad-P450 cells, substrate cocktail. It counts as in vitro ADME. To be noted: probe omeprazole (5-hydroxylation), read-out: Residual activity CYP2C19.
The target in data set [10] is T1, CYP2D6. Nature of the data set: CYP2D6 inhibition (dextromethorphan O-demethylation) in Ad-P450 cells, substrate cocktail. The class given is in vitro ADME. The conditions noted are these: read-out: Residual activity CYP2D6.
Data set [11] has as its target T3, CYP3A4. The data set is described as follows: CYP3A4 inhibition (midazolam 1′-hydroxylation) in Ad-P450 cells, substrate cocktail. The conditions noted are these: probe midazolam (1′-hydroxylation), read-out: Residual activity CYP3A4. The class given is in vitro ADME.
The target in data set [12] is T5, CYP1A2. The data set is described as follows: CYP1A2 inhibition (phenacetin O-deethylation) in Ad-P450 cells, substrate cocktail. It counts as in vitro ADME. Further details: expressed in transfected cells; host or cells: HepG2 cells infected with Ad-CYP1A2 (5 MOI) together with the four other P450 adenoviruses. The conditions noted are these: probe phenacetin (O-deethylation), read-out: Residual activity CYP1A2.

T4 sequence (P33261 whole entry): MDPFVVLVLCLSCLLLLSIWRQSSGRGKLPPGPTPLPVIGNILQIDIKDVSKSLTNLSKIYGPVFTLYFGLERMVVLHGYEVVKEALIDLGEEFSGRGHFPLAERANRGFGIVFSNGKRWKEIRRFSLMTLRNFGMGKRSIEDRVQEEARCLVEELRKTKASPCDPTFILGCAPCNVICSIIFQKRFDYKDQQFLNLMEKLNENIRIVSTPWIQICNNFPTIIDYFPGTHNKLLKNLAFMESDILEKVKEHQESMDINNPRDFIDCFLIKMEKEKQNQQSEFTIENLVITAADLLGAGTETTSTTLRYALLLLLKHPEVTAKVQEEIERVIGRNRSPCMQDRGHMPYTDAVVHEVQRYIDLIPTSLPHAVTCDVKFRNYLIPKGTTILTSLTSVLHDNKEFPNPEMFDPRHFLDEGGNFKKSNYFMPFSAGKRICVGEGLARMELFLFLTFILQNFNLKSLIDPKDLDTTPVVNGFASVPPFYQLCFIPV
T1 sequence (P10635 whole entry): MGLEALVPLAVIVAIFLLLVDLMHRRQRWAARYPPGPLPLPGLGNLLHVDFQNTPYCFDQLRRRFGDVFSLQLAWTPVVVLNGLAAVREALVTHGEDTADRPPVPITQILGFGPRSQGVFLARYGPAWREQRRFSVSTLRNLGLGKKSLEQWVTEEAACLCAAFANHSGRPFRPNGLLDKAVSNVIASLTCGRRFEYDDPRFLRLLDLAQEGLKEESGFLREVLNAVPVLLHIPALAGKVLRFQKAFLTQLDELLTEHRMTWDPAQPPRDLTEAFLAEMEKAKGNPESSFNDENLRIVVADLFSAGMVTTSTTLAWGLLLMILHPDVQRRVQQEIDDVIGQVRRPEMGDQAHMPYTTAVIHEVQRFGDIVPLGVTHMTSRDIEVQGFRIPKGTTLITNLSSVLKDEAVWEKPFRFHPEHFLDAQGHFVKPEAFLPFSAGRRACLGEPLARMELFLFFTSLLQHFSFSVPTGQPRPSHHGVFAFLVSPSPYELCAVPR
T3 sequence (P08684 whole entry): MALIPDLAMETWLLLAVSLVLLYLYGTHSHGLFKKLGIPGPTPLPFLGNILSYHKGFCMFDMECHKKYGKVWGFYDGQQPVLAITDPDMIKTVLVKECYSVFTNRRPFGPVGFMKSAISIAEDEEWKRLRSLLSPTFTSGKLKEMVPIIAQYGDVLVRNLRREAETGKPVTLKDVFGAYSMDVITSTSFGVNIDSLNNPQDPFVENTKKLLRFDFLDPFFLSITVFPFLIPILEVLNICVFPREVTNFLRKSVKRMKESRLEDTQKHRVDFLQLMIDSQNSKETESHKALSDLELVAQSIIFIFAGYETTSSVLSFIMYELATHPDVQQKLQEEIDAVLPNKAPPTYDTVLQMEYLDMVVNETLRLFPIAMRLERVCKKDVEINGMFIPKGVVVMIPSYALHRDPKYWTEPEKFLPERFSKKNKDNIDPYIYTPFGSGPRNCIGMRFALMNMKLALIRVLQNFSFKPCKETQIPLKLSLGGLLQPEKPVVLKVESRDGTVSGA
T2 sequence (P11712 whole entry): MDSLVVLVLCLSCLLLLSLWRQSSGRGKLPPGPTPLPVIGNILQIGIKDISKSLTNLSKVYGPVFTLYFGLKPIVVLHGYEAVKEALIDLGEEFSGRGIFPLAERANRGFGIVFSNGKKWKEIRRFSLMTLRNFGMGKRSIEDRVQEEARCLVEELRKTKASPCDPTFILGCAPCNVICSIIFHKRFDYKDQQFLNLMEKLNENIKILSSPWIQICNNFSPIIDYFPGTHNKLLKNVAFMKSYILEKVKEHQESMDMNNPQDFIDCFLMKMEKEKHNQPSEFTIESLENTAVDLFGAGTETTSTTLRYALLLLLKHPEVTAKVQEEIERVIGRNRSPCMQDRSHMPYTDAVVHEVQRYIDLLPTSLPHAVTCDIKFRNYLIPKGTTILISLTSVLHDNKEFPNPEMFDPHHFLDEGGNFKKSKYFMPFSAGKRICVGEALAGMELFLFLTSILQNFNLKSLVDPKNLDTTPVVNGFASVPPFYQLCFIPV

Consider `COc1ccc2c(c1)[C@]13CCCC[C@@H]1[C@H](C2)N(C)CC3` [Dextromethorphan], for which, at CYP2D6 [1] (Dextromethorphan O-demethylation, Ad-P450 cells, 5 h), the Vmax is reported as 1.10 pmol/well/hr. In addition, at CYP2D6 [1] (human), the Km (commonly the concentration of substrate that gives half-maximal velocity) at 5 h stood at 17.1 µM.

On to `O=C(O)Cc1ccccc1Nc1c(Cl)cccc1Cl` [Diclofenac], for which, at CYP2C9 [2] (5 h), the Vmax is recorded as 239.9 pmol/well/hr. The Km at 5 h at CYP2C9 [2] (human) turned out to be 5.87 µM.

With `Cc1ncc2n1-c1ccc(Cl)cc1C(c1ccccc1F)=NC2` [Midazolam], on CYP3A4 [3] (Midazolam 1′-hydroxylation, Ad-P450 cells, 5 h), the Vmax was 12.30 pmol/well/hr. In addition, the Km at 5 h at CYP3A4 [3] (human) is 1 µM.

For `COc1ccc2[nH]c([S+]([O-])Cc3ncc(C)c(OC)c3C)nc2c1` (stereo not shown) [Omeprazole], the Vmax at CYP2C19 [4] (5 h) worked out at 4.66 pmol/well/hr. Moreover, the Michaelis constant (Km) at 5 h at CYP2C19 [4] (human) worked out at 2.75 µM.

Consider `CCOc1ccc(NC(C)=O)cc1` [Phenacetin], for which the Vmax on CYP1A2 [5] amounted to 100.30 pmol/well/hr.

On to `c1cc2c(cc1[C@H]1OC[C@H]3[C@@H]1CO[C@@H]3c1ccc3c(c1)OCO3)OCO2` [Sesamin], for which the Ki (commonly the dissociation constant of the complex between target and ligand, obtained from inhibition or displacement) in the data set with CYP1A2 [6] was 75 µM; with CYP2C9 [7], 24 µM; in the data set on CYP3A4 [8], 4.2 µM.

In the case of `COc1cc(/C=C/C(=O)CC(=O)/C=C/c2ccc(O)c(OC)c2)ccc1O` [curcumin], the activity at 5 h, 50 μM on CYP2C19 [9] was determined as 72.7%; at CYP2D6 [10], 71.9%; at CYP3A4 [11], 61.9%; at CYP1A2 [12], 58.3%.
